For assay [1], the system named is Bcl-2 family and PKC isoform mRNA. Description: Gene expression by quantitative real-time RT-PCR in serum-free PC12 cells. It is filed as cell-based, rat. As to conditions: 1 μM, 24 h, serum-free PC12. As for the experimental part: (vi) Total RNA extraction. PC12 cells were cultured in DMEM containing 5% FCS and 10% horse serum until confluence. At the day of the experiment, the medium was replaced with fresh medium without serum and rasagiline or propargylamine at various concentrations were administered for 24 h. At the end of incubation, the medium was removed and isolation of total RNA was performed, using Tri Reagent™ Isolation reagent. Total RNA was treated with DNase-RNase free (Roche Diagnostics, Mannheim, Germany) for 30 min at 37° C. and subsequently extracted by a round of phenol:chlorophorm:isoamylalcohol (25:24:1), followed by one of chloroform. After precipitation with NaOAc (0.3 M) and ethyl alcohol, the RNA pellet was washed with 80% ethyl alcohol (12,000×g) for 10 min and resuspended in 50-100 μl of diethylpyrocarbonate (DEPC)-treated water and incubated for 5-10 min at 56° C. to facilitate resuspension.
(vi) Reverse transcription (RT) and quantitative real-time RT-PCR. In order to confirm the results obtained with the customized cDNA expression micro-array, 2 μg of total RNA were denatured and reverse transcribed using random hexanucleotides (0.5 μg/μl). Secondary structures of the template and primer (total volume of 16 μl) were opened by incubation for 5 min at 70° C. and immediately cooled on ice. Reaction mix (9 μl) containing reaction buffer, dNTP (0.5 mm each), RNAasin™ RNAase inhibitor (Promega) (25U) and M-MLV reverse transcriptase (200U) was added and samples were incubated at 39° C. for 1 h. For every RNA preparation a negative control was run in parallel consisting of a direct amplification of the RNA sample, omitting the RT step. The samples were transferred to 92° C. for 10 min, in order to deactivate the enzyme, and then cooled to 4° C.
Quantitative real-time PCR, using LightCycler and FastStart DNA Master SYBR Green I ready-to use PCR mix, was performed according to the manufacture's protocol (Roche Diagnostics, Mannheim, Germany). cDNA (40 ng) was amplified in 20 μl total volume. The sequences of the primers and the size of the products are described in Table 1. The results are analyzed on the provided program of the LightCycler. The relative expression level of a given mRNA was assessed by normalizing to the housekeeping gene 18S-rRNA and compared with control values.
In this experiment, we examined whether Bcl-2 family proteins mediate the pro-survival effect of rasagiline, using serum-starved rat pheochromocytoma PC12 cell line as a model of neuronal apoptosis. PC12 cells were maintained in full-serum (control), or in serum-free (SF) media in the absence or presence of various concentrations of rasagiline (0.001, 0.1, 1 and 10 μM) for 3 h or 24 h, and gene expression was measured by quantitative real-time RT-PC. The real-time RT-PCR consists of RNA samples isolated from said PC-12 cells. Each gene expression was normalized to the housekeeping gene, 18S-rRNA, since this transcript was reported to be less susceptible to the influence by external factors.
The effect of propargylamine on Bad and Bax mRNA levels was examined as described in Example 5 above.
For orientation: In qPCR the cycle at which signal appears reflects the starting amount.

A further assay relates to caspase-3. Kind of assay: Caspase-3 cleavage in SH-SY5Y cells in serum free medium. Conditions: 3 days serum free, then 48 h with 1, 10 μM. The assay is classed as cell-based, human. The protocol: FIGS. 3A-3D show the neuroprotective effects of propargylamine against serum deprivation. PC12 cells (3A) and SH-SY5Y neuroblastoma cells (3B) were incubated under serum deprivation and were untreated or treated with propargylamine (0.1, 1, 10 μM) for 24 hours. Cell death was detected by ELISA and the values are expressed as a percentage of the control. The results are the mean±SEM (n=3). *p<0.05 vs. control, untreated cells. (3C) Morphological characteristics visualized by phase-contrast microscope of PC12 cells maintained with full serum medium (a), or serum-free medium in the absence (b) or presence of propargylamine (1 μM) (c) or (10 μM) (d). The morphology was visualized by phase-contrast microscope. The results are representative photographic. Similar results were repeated 3 times. (3D) Effect of propargylamine on caspase-3 cleavage in SH-SY5Y neuroblastoma cells incubated 3 days in serum free medium, followed by 48 h incubation with or without propargylamine (1,10 μM).
(iv) Immunoblot Analyses. […] Protein content was determined using the Bradford method. […] Quantification of results was accomplished by measuring the optical density of the labeled bands from the autoradiograms by scanning laser densitometry using the computerized imaging program Bio-ID (Imager, Bio1D software; Vilber Lourmat, Marne La Vallee, France). […]

Assay [2] concerns SH-SY5Y neuroblastoma cells. Description: Cell death under serum deprivation (apoptotic cell death detection ELISA), SH-SY5Y. The assay is classed as cell-based, human. As to conditions: 24 h serum deprivation, significant at 1 and 10 μM. For orientation: An ELISA detects its analyte on a solid surface through an enzyme-linked reagent.
Procedure: (ii) Cell culture, viability measurements and experimental treatments. Two different neuronal cell lines were used: the rat PC12 and the human neuroblastoma SH-SY5Y cells.
SH-SY5Y neuroblastoma cells were plated in 100-mm culture dishes and cultured in Dulbecco's modified Eagle's medium (DMEM; 4500 mg/l glucose), containing 10% fetal calf serum (FCS) and a mixture of 1% penicillin/streptomycin/nystatin.
Cell cultures were incubated at 37° C. in a humid 5% CO2-95% air environment. For cell viability assays, cells were treated with various drugs in serum free media containing 0.1% BSA.
(iii) Measurement of cell death.
In order to test cell viability, PC12 cells and SH-SY5Y neuroblastoma cels were incubated under serum deprivation and were untreated or treated with rasagiline (0.1. 1 or 10 μM) for 24 hours.
In order to test cell viability, PC12 cells and SH-SY5Y neuroblastoma cels were incubated under serum deprivation and were untreated or treated with propargylamine (0.1. 1 or 10 μM) for 24 hours.

As for `C#CCN` [propargylamine], in assay [1], the Bad gene expression entry is “restored both Bax and Bad gene expressions to that of full serum level”; the Bax gene expression result is “restored both Bax and Bad gene expressions to that of full serum level”. Also, the “activated caspase-3” value in the assay with caspase-3 is given as “decreased activated caspase-3”. For the same compound, in assay [2], the “cell death induced by serum deprivation” value is “significantly reduced cell death”.

These data come from patent US20050191348A1 (priority 2004, published 2005).
